Patent US9963467B2, “Boronic acid derivatives and therapeutic uses thereof” (Rempex Pharmaceuticals, Inc., priority 2014, dated 2018)

Key:
CTX-M-14 = CTX-M-14 (Escherichia coli, UniProt Q9L5C7); assay: Ki, nitrocefin cleavage by purified enzyme, CTX-M-14; format: biochemical; settings: nitrocefin reporter substrate; read-out: Ki (CTX-M-14, NCF)
How it was run: (§1)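 Readout: nitrocefin hydrolysis, A490 recorded every 10 sec over 10 min. Enzyme and inhibitor (varied concentrations) preincubated 10 min, RT, in reaction buffer before substrate addition.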

KP1005 (CTX-M-14) [1] = assay: Tigemonam potentiation (MPC@4), KP1005; format: cell-based; settings: BLI with tigemonam at 4 μg/mL
EC1010 (CMY-6) [2] = assay: Tigemonam potentiation (MPC@4), EC1010; format: cell-based; settings: BLI with tigemonam at 4 μg/mL
KP1009 (CTX-M-15) [3] = assay: organism not typed; format: cell-based
P99 = P99 (Enterobacter cloacae, UniProt P05364); assay: Ki, nitrocefin cleavage by purified enzyme, P99; format: biochemical; settings: nitrocefin reporter substrate; read-out: Ki (P99, NCF)
How it was run: as §1

OXA-48 = OXA-48 (Klebsiella pneumoniae, UniProt Q6XEC0); assay: Ki, nitrocefin cleavage by purified enzyme, OXA-48; format: biochemical; settings: nitrocefin reporter substrate; read-out: Ki (OXA-48, NCF)
How it was run: as §1

ECL1002 [4] = assay: Tigemonam potentiation (MPC@4), ECL1002; format: cell-based; settings: BLI with tigemonam at 4 μg/mL
KP1009 (CTX-M-15) [5] = assay: Tigemonam potentiation (MPC@4), KP1009; format: cell-based; settings: BLI with tigemonam at 4 μg/mL
Pa AmpC = Pa AmpC (Pseudomonas aeruginosa, UniProt P24735); assay: Ki, nitrocefin cleavage by purified enzyme, Pa AmpC; format: biochemical; settings: nitrocefin reporter substrate; read-out: Ki (Pa AmpC, NCF)
How it was run: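 Ki derived spectrophotometrically: after adding nitrocefin, absorbance at 490 nm recorded every 10 sec over 10 min. Each purified enzyme had first been incubated with inhibitor at several concentrations for 10 min at room temperature.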

ec302 (TEM-10) [6] = assay: Aztreonam potentiation (MPC@4), ec302; format: cell-based; settings: BLI with aztreonam at 4 μg/mL
KP1004 (KPC-2) [7] = assay: Biapenem potentiation (MPC@1), KP1004; settings: BLI with biapenem at 1 μg/mL
ec302 (TEM-10) [8] = assay: Tigemonam potentiation (MPC@4), ec302; format: cell-based
KP1005 (CTX-M-14) [9] = assay: Aztreonam potentiation (MPC@4), KP1005; format: cell-based; settings: BLI with aztreonam at 4 μg/mL
KP1010 (SHV-12) [10] = assay: Tigemonam potentiation (MPC@4), KP1010; format: cell-based
KP1086 (OXA-48) = assay: Biapenem potentiation (MPC@1), KP1086; settings: BLI with biapenem at 1 μg/mL
ECL1002 [11] = assay: Aztreonam potentiation (MPC@4), ECL1002; format: cell-based; settings: BLI with aztreonam at 4 μg/mL
SHV-12 = SHV-12 (Klebsiella pneumoniae, UniProt P0AD64, E235K/G234S/L31Q); assay: Ki, nitrocefin cleavage by purified enzyme, SHV-12; format: biochemical; settings: nitrocefin reporter substrate; read-out: Ki (SHV-12, NCF)
How it was run: as §1

[12] = Monomer content of pH adjusted aqueous solutions (LC-UV); format: physicochemical; settings: 1 mg/mL aqueous salt solution, pH adjusted to 7.6 to 8, LC-UV
How it was run: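 Aqueous solutions at 1.00, 10.0 or 100 mg/mL (active fraction) brought to pH 7.6–8 with acid or base, compound fully dissolved. Injected within half an hour of preparation onto C18 reversed-phase LC (0.1% TFA water / 0.085% TFA methanol gradient); UV detection at 220, 254 and 300 nm.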

ec308 (SHV-5) [13] = assay: Tigemonam potentiation (MPC@4), ec308; format: cell-based
KPC-2 = KPC-2 (Klebsiella pneumoniae, UniProt Q9F663); assay: Ki, nitrocefin cleavage by purified enzyme, KPC-2; format: biochemical; settings: nitrocefin reporter substrate; read-out: Ki (KPC-2, NCF)
How it was run: as §1

KP1004 (KPC-2) [14] = assay: Aztreonam potentiation (MPC@4), KP1004; format: cell-based; settings: BLI with aztreonam at 4 μg/mL
EC1010 (CMY-6) [15] = assay: organism not typed; format: cell-based
ec308 (SHV-5) [16] = assay: Aztreonam potentiation (MPC@4), ec308; format: cell-based; settings: BLI with aztreonam at 4 μg/mL
KP1010 (SHV-12) [17] = assay: Aztreonam potentiation (MPC@4), KP1010; format: cell-based

Chain of Pa AmpC (P24735 27-397): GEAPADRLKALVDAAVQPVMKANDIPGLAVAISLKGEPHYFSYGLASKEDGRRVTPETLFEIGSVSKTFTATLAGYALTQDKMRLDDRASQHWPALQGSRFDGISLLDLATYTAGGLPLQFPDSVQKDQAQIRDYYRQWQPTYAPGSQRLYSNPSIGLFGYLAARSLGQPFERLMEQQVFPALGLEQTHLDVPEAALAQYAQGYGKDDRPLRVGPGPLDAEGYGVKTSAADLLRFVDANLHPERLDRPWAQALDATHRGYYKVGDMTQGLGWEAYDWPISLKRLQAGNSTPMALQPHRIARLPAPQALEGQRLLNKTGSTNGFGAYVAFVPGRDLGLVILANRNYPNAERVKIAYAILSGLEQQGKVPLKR
Chain of CTX-M-14 (Q9L5C7 29-291): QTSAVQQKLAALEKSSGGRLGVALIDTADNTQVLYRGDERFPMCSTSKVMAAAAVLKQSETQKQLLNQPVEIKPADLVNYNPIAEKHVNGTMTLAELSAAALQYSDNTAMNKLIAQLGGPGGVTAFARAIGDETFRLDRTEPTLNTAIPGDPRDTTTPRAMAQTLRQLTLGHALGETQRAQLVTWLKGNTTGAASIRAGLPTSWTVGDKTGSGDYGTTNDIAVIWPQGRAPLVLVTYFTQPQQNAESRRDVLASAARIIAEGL
Chain of P99 (P05364 21-381): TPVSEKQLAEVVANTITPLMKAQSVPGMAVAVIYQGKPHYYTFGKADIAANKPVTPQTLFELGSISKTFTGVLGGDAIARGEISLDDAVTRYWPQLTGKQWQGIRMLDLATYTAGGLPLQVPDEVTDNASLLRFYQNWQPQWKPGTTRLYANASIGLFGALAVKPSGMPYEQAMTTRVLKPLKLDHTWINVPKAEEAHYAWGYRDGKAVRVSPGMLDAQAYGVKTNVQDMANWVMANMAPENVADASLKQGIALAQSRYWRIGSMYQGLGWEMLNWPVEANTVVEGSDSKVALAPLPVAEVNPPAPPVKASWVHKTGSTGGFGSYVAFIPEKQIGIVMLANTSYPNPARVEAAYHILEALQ
Chain of OXA-48 (Q6XEC0 23-265, looked up, species assumed): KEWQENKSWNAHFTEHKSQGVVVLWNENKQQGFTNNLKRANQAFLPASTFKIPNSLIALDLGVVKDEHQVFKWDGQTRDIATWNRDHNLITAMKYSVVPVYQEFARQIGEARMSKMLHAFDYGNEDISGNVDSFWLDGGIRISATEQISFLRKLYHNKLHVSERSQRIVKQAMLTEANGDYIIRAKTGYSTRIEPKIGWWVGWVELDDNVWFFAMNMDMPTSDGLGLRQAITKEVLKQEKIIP
Chain of SHV-12 (P0AD64 22-286 L31Q/G234S/E235K): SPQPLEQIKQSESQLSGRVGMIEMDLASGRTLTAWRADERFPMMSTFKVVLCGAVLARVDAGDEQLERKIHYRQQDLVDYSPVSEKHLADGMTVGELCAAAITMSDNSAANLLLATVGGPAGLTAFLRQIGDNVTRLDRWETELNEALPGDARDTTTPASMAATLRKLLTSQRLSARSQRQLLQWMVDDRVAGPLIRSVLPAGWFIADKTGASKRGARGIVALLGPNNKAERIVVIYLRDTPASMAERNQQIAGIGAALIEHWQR
Chain of KPC-2 (Q9F663 25-293, looked up, species assumed): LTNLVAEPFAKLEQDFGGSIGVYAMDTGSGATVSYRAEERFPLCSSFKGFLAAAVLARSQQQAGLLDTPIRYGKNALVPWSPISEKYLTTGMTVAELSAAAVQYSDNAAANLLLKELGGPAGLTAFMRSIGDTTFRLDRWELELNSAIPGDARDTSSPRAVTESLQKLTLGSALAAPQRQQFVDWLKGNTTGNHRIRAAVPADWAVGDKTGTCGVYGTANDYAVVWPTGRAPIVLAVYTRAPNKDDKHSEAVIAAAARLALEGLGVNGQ

CSCC(=O)N[C@H]1Cc2ccc(Sc3nnc(N)s3)c(C(=O)O)c2OB1O [Compound 21, (R)-7-(5-amino-1,3,4-thiadiazol-2-ylthio)-2-hydroxy-3-(2-(methylthio)acetamido)-3,4-dihydro-2H-benzo[e][1,2]oxaborinine-8-carboxylic acid]
Ki (CTX-M-14): < 1 nM | TIG MPC4 CTX-M-14 KP1005 (KP1005 (CTX-M-14) [1]): Y (MIC of 1 μg/mL to 10 μg/mL) | TIG MPC4 CMY-6 EC1010 (EC1010 (CMY-6) [2]): Y (MIC of 1 μg/mL to 10 μg/mL) | AZT MPC4 CTX-M-15 KP1009 (KP1009 (CTX-M-15) [3]): Y (key: X: MIC of less than 1 ng/mL; Y: MIC of 1 μg/mL to 10 μg/mL; Z: MIC of greater than 10 μg/mL) | Ki (P99): > 10 nM | Ki (OXA-48): < 1 nM | TIG MPC4 ECL1002 (ECL1002 [4]): Y (MIC of 1 μg/mL to 10 μg/mL) | TIG MPC4 CTX-M-15 KP1009 (KP1009 (CTX-M-15) [5]): Y (MIC of 1 μg/mL to 10 μg/mL) | Ki (Pa AmpC): > 10 nM | AZT MPC4 TEM-10 ec302 (ec302 (TEM-10) [6]): Y (MIC of 1 μg/mL to 10 μg/mL) | BPM MPC1 KP1004 KPC-2 (KP1004 (KPC-2) [7]): Y (MIC of 1 μg/mL to 10 μg/mL) | TIG MPC4 TEM-10 ec302 (ec302 (TEM-10) [8]): Y (key: X: MIC of less than 1 ng/mL; Y: MIC of 1 μg/mL to 10 μg/mL; Z: MIC of greater than 10 μg/mL) | AZT MPC4 CTX-M-14 KP1005 (KP1005 (CTX-M-14) [9]): Y (MIC of 1 μg/mL to 10 μg/mL) | TIG MPC4 SHV-12 KP1010 (KP1010 (SHV-12) [10]): X (key: X: MIC of less than 1 μg/mL; Y: MIC of 1 μg/mL to 10 μg/mL; Z: MIC of greater than 10 μg/mL) | BPM MPC1 OXA-48 KP1086 (KP1086 (OXA-48)): Z (MIC of greater than 10 μg/mL) | AZT MPC4 ECL1002 (ECL1002 [11]): Y (MIC of 1 μg/mL to 10 μg/mL) | Ki (SHV-12): < 1 nM | % Monomer in 1 mg/mL salt solution [12]: 98.1% | TIG MPC4 SHV-5 ec308 (ec308 (SHV-5) [13]): X (key: X: MIC of less than 1 μg/mL; Y: MIC of 1 μg/mL to 10 μg/mL; Z: MIC of greater than 10 μg/mL) | Ki (KPC-2): > 10 nM | AZT MPC4 KPC-2 KP1004 (KP1004 (KPC-2) [14]): Y (MIC of 1 μg/mL to 10 μg/mL) | AZT MPC4 CMY-6 EC1010 (EC1010 (CMY-6) [15]): Y (key: X: MIC of less than 1 ng/mL; Y: MIC of 1 μg/mL to 10 μg/mL; Z: MIC of greater than 10 μg/mL)

O=CN[C@H]1Cc2ccc(F)c(C(=O)O)c2OB1O [Compound 6, (R)-7-fluoro-3-formamido-2-hydroxy-3,4-dihydro-2H-benzo[e][1,2]oxaborinine-8-carboxylic acid]
Ki (CTX-M-14): < 1 nM | TIG MPC4 CTX-M-14 KP1005 (KP1005 (CTX-M-14) [1]): Y (MIC of 1 μg/mL to 10 μg/mL) | TIG MPC4 CMY-6 EC1010 (EC1010 (CMY-6) [2]): X (MIC of less than 1 μg/mL) | AZT MPC4 CTX-M-15 KP1009 (KP1009 (CTX-M-15) [3]): Y (key: X: MIC of less than 1 ng/mL; Y: MIC of 1 μg/mL to 10 μg/mL; Z: MIC of greater than 10 μg/mL) | Ki (P99): > 10 nM | Ki (OXA-48): 1 to 10 nM | TIG MPC4 ECL1002 (ECL1002 [4]): X (MIC of less than 1 μg/mL) | TIG MPC4 CTX-M-15 KP1009 (KP1009 (CTX-M-15) [5]): Y (MIC of 1 μg/mL to 10 μg/mL) | Ki (Pa AmpC): > 10 nM | AZT MPC4 TEM-10 ec302 (ec302 (TEM-10) [6]): Y (MIC of 1 μg/mL to 10 μg/mL) | BPM MPC1 KP1004 KPC-2 (KP1004 (KPC-2) [7]): X (MIC of less than 1 μg/mL) | TIG MPC4 TEM-10 ec302 (ec302 (TEM-10) [8]): Z (key: X: MIC of less than 1 ng/mL; Y: MIC of 1 μg/mL to 10 μg/mL; Z: MIC of greater than 10 μg/mL) | AZT MPC4 CTX-M-14 KP1005 (KP1005 (CTX-M-14) [9]): Y (MIC of 1 μg/mL to 10 μg/mL) | TIG MPC4 SHV-12 KP1010 (KP1010 (SHV-12) [10]): Y (key: X: MIC of less than 1 ng/mL; Y: MIC of 1 μg/mL to 10 μg/mL; Z: MIC of greater than 10 μg/mL) | BPM MPC1 OXA-48 KP1086 (KP1086 (OXA-48)): Y (MIC of 1 μg/mL to 10 μg/mL) | AZT MPC4 ECL1002 (ECL1002 [11]): Y (MIC of 1 μg/mL to 10 μg/mL) | Ki (SHV-12): < 1 nM | TIG MPC4 SHV-5 ec308 (ec308 (SHV-5) [13]): Y (key: X: MIC of less than 1 ng/mL; Y: MIC of 1 μg/mL to 10 μg/mL; Z: MIC of greater than 10 μg/mL) | Ki (KPC-2): > 10 nM | AZT MPC4 SHV-5 ec308 (ec308 (SHV-5) [16]): Y (MIC of 1 μg/mL to 10 μg/mL) | AZT MPC4 CMY-6 EC1010 (EC1010 (CMY-6) [15]): Y (key: X: MIC of less than 1 ng/mL; Y: MIC of 1 μg/mL to 10 μg/mL; Z: MIC of greater than 10 μg/mL)

CSCC(=O)N[C@H]1Cc2cccc(C(=O)O)c2OB1O [A, reference compound]
TIG MPC4 CTX-M-14 KP1005 (KP1005 (CTX-M-14) [1]): Y (MIC of 1 μg/mL to 10 μg/mL) | AZT MPC4 CTX-M-15 KP1009 (KP1009 (CTX-M-15) [3]): X (key: X: MIC of less than 1 ng/mL; Y: MIC of 1 μg/mL to 10 μg/mL; Z: MIC of greater than 10 μg/mL) | TIG MPC4 ECL1002 (ECL1002 [4]): X (MIC of less than 1 μg/mL) | TIG MPC4 CTX-M-15 KP1009 (KP1009 (CTX-M-15) [5]): X (MIC of less than 1 μg/mL) | Ki (Pa AmpC): 1 to 10 nM | BPM MPC1 KP1004 KPC-2 (KP1004 (KPC-2) [7]): X (MIC of less than 1 μg/mL) | TIG MPC4 TEM-10 ec302 (ec302 (TEM-10) [8]): Y (key: X: MIC of less than 1 ng/mL; Y: MIC of 1 μg/mL to 10 μg/mL; Z: MIC of greater than 10 μg/mL) | AZT MPC4 CTX-M-14 KP1005 (KP1005 (CTX-M-14) [9]): X (MIC of less than 1 ng/mL) | TIG MPC4 SHV-12 KP1010 (KP1010 (SHV-12) [10]): X (key: X: MIC of less than 1 μg/mL; Y: MIC of 1 μg/mL to 10 μg/mL; Z: MIC of greater than 10 μg/mL) | BPM MPC1 OXA-48 KP1086 (KP1086 (OXA-48)): Y (MIC of 1 μg/mL to 10 μg/mL) | AZT MPC4 ECL1002 (ECL1002 [11]): X (MIC of less than 1 ng/mL) | AZT MPC4 SHV-12 KP1010 (KP1010 (SHV-12) [17]): X (key: X: MIC of less than 1 ng/mL; Y: MIC of 1 μg/mL to 10 μg/mL; Z: MIC of greater than 10 μg/mL) | TIG MPC4 SHV-5 ec308 (ec308 (SHV-5) [13]): X (key: X: MIC of less than 1 μg/mL; Y: MIC of 1 μg/mL to 10 μg/mL; Z: MIC of greater than 10 μg/mL) | AZT MPC4 SHV-5 ec308 (ec308 (SHV-5) [16]): X (MIC of less than 1 ng/mL) | AZT MPC4 CMY-6 EC1010 (EC1010 (CMY-6) [15]): X (key: X: MIC of less than 1 ng/mL; Y: MIC of 1 μg/mL to 10 μg/mL; Z: MIC of greater than 10 μg/mL)
